Assays:
Conditions in all cases: incubation time: 72 h
HCC1143 [1] = assay: normalised response (% of control), CellTiter-Glo; higher = more viable cells (100 = DMSO, 0 = benzethonium chloride kill control)
Method: (§1)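 DSRT, 72 h incubation, CellTox Green / CellTiter-Glo readout. Signal is normalised to DMSO and benzethonium chloride controls. Value is the normalised response at dose 3.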

CAL-148 [2] = assay: as above
Method: as §1

DU-4475 [3] = assay: as above
Method: as §1

CAL-85-1 [4] = assay: as above
Method: as §1

HCC1599 [5] = assay: as above
Method: as §1

MDA-MB-231 [6] = assay: as above
Method: as §1

MCF-10A [7] = assay: as above
Method: as §1

BT-474 [8] = assay: as above
Method: as §1

MDA-MB-468 [9] = assay: as above
Method: as §1

MDA-MB-453 [10] = assay: as above
Method: as §1

MDA-MB-436 [11] = assay: as above
Method: as §1

CAL-120 [12] = assay: as above
Method: as §1

HDQ-P1 [13] = assay: as above
Method: as §1

Hs578T [14] = assay: as above
Method: as §1

HCC1937 [15] = assay: as above
Method: as §1

MFM-223 [16] = assay: as above
Method: as §1

BT-549 [17] = assay: as above
Method: as §1

CAL-51 [18] = assay: as above
Method: as §1

SK-BR-3 = assay: as above
Method: as §1

HCC1143 [19] = assay: normalised response (% of control), CellTox Green; higher = less cell death (100 = DMSO, 0 = benzethonium chloride kill control)
How it was run: (§2)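 Plates were normalised with 0.1 % DMSO as 100 and a positive kill control as 0. Breast cancer cell lines in 20 µl suspension had been seeded into 384-well plates with compound at 5 concentrations in 10-fold steps over a compound-specific 10,000-fold range, incubated 72 h, and read for CellTox Green fluorescence (485/520 nm) followed by CellTiter-Glo luminescence. Each value is the normalised signal at a single concentration.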

CAL-148 [20] = assay: as above
How it was run: as §2

DU-4475 [21] = assay: as above
How it was run: as §2

CAL-85-1 [22] = assay: as above
How it was run: as §2

HCC1599 [23] = assay: as above
How it was run: as §2

MDA-MB-231 [24] = assay: as above
How it was run: as §2

MCF-10A [25] = assay: as above
How it was run: as §2

BT-474 [26] = assay: as above
How it was run: as §2

MDA-MB-468 [27] = assay: as above
How it was run: as §2

MDA-MB-453 [28] = assay: as above
How it was run: as §2

MDA-MB-436 [29] = assay: as above
How it was run: as §2

CAL-120 [30] = assay: as above
How it was run: as §2

HDQ-P1 [31] = assay: as above
How it was run: as §2

Hs578T [32] = assay: as above
How it was run: as §2

HCC1937 [33] = assay: as above
How it was run: as §2

MFM-223 [34] = assay: as above
How it was run: as §2

BT-549 [35] = assay: as above
How it was run: as §2

CAL-51 [36] = assay: as above
How it was run: as §2

SMILES	normalised response (HCC1143 [1]) [%]	normalised response (CAL-148 [2]) [%]	normalised response (DU-4475 [3]) [%]	normalised response (CAL-85-1 [4]) [%]	normalised response (HCC1599 [5]) [%]	normalised response (MDA-MB-231 [6]) [%]	normalised response (MCF-10A [7]) [%]	normalised response (BT-474 [8]) [%]	normalised response (MDA-MB-468 [9]) [%]	normalised response (MDA-MB-453 [10]) [%]	normalised response (MDA-MB-436 [11]) [%]	normalised response (CAL-120 [12]) [%]	normalised response (HDQ-P1 [13]) [%]	normalised response (Hs578T [14]) [%]	normalised response (HCC1937 [15]) [%]	normalised response (MFM-223 [16]) [%]	normalised response (BT-549 [17]) [%]	normalised response (CAL-51 [18]) [%]	normalised response (SK-BR-3) [%]	normalised response (HCC1143 [19]) [%]	normalised response (CAL-148 [20]) [%]	normalised response (DU-4475 [21]) [%]	normalised response (CAL-85-1 [22]) [%]	normalised response (HCC1599 [23]) [%]	normalised response (MDA-MB-231 [24]) [%]	normalised response (MCF-10A [25]) [%]	normalised response (BT-474 [26]) [%]	normalised response (MDA-MB-468 [27]) [%]	normalised response (MDA-MB-453 [28]) [%]	normalised response (MDA-MB-436 [29]) [%]	normalised response (CAL-120 [30]) [%]	normalised response (HDQ-P1 [31]) [%]	normalised response (Hs578T [32]) [%]	normalised response (HCC1937 [33]) [%]	normalised response (MFM-223 [34]) [%]	normalised response (BT-549 [35]) [%]	normalised response (CAL-51 [36]) [%]
O=C(O)c1ccc(-c2c[nH]c3ncc(-c4ccccc4)cc23)cc1C1CCCC1 (100 nM)	102	88	98.2	101	89.5	97.3	93.1	93.8	90.6	97.6	89.5	97.9	96.7	103	97.1	96.2	101	64.1	97.2	83.7	101	95.1	108	98.6	89.3	97.3	99.5	108	95.8	95.5	95	99	89.5	107	101	83.6	84.6
CCC1(c2ccc(N)cc2)CCC(=O)NC1=O (stereo unspecified) [Aminoglutethimide] (100 nM)	95.3	105	100	107	90.5	104	94.1	99.1	100	103	98.3	108	98.5	98.3	94.7	102	108	117	99.3	96.9		98.3	106	104	98	99.1	101	119	103	109	98.6	88.9	103	102	92.2	98	113
Cn1c(CCCC(=O)O)nc2cc(N(CCCl)CCCl)ccc21 [Bendamustine] (100 nM)	111	117	101	97.3	99.1	104	108	104	106	125	97.6	103	102	103	105	106	106	107	108	110	107	103	89.6	109	102	73.5	102	141	105	91.8	97.4	88.7	105	88.6	105	101	111
C=C(c1ccc(C(=O)O)cc1)c1cc2c(cc1C)C(C)(C)CCC2(C)C [Bexarotene] (100 nM)	104	101	104	105	90.8	101	91.8	109	104	117	98	104	104	95.9	100	108	105	80.1	88.6	97.9	95.2	98.8	95.8	105		104	97	108	96.1	94.1	99.7	108	98.7	105	81.8	92.4	96.9

From the supplement of paper PMC4862054
